Read-outs that look alike come from different tables or passages of the source.
Key:
[1] = tested on: HeLa human cervical carcinoma cells (CCL-2); assay: cellular potency in HeLa cells; type: cell-based; conditions: read-out: IC50 value (cellular potency)
[2] = logD; type: physicochemical; conditions: relative to parent atuveciclib
[3] = kinetic solubility; type: physicochemical; conditions: compared to atuveciclib
[4] = tested on: Madin-Darby canine kidney (MDCK) cells; assay: permeability in MDCK cells; type: in vitro ADME; conditions: compared to the parent compound

IC50 ([1]; Homo sapiens, HeLa) [µM] | IC50 ([1]; HeLa human cervical carcinoma cells (CCL-2)) [µM] | logD [2] | Compound | kinetic solubility [3] | permeability [4]
0.3 | – | – | COc1cc(F)ccc1-c1ncnc(Nc2cccc(C[S@](C)(=N)=O)c2)n1 [atuveciclib, reference compound] | – | –
– | 0.7 | increase in logD | COc1cc(F)ccc1-c1ncnc(Nc2cccc(C[S@@](C)(=O)=NC3CCC3)c2)n1 [Compound 57] | notable improvement compared to atuveciclib | enhanced permeability compared to the parent compound
